Measurements as given in patent publication US20220378706A1, “PHARMACEUTICAL COMPOSITION COMPRISING PDE9 INHIBITOR” (Eisai R&D Management Co., Ltd., priority 2017, published 2022).

How the values were obtained:
[1] = Single dose clinical study: safety assessments (adverse events); type: in vivo, human; conditions: for incidence of any TEAEs: Part B 100 mg Cohort
Source text: Safety assessments consisted of monitoring and recording all adverse events (AEs) and serious adverse events (SAEs); laboratory evaluation for hematology, blood chemistry, and urine values; periodic measurement of vital signs (including orthostatic changes in blood pressure [BP] and heart rate [HR]) and electrocardiograms (ECGs); and the performance of physical examinations.
Safety data evaluated included AEs, clinical laboratory results, vital signs, and ECGs. Treatment emergent adverse events (TEAEs) were summarized by presenting the incidence of AEs for each cohort and dose group. For the laboratory, vital signs, and ECG data in all cohorts in any treatment period, the baseline was the values recorded immediately prior to dosing with study drug in that treatment period.

[2] = test system: CSF cGMP; assay: Multiple ascending dose study: CSF cGMP; type: in vivo, human
Method: Four sequential cohorts of healthy participants (≥50 years and ≤85 years old) were treated with multiple ascending doses of Compound A up to the maximum tolerated dose (MTD). A total of 6 participants per cohort were randomized to Compound A. Proposed doses of Compound A were:
Compound A was administered orally with 240 milliliter (mL) (8 fluid ounces) of water. […]

[3] = Day 13, 5 mg QD oral, Parts A and D
[4] = Day 13, 10 mg QD oral, Parts A and D
[5] = Day 13, 25 mg QD oral, Parts A and D
[6] = Day 13, 50 mg QD oral, Parts A and D
[7] = Day 13, 100 mg QD oral, Parts A and D
[8] = Day 13, 200 mg QD oral, Parts A and D
[9] = Day 13, 400 mg QD oral Non-Japanese, Parts A and D

SMILES: COc1ncc(C)c(-c2ccc3c(c2)[nH]c(=O)c2cnn([C@H]4CCOC4)c23)c1C [Compound A, (S)-7-(2-methoxy-3,5-dimethylpyridin-4-yl)-1-(tetrahydrofuran-3-yl)-1H-pyrazolo[4,3-c]quin olin-4(5H)-one]
- tolerability ([1]; Part A healthy adult subjects, single oral doses 10 to 1200 mg): well tolerated
- TEAE back pain ([1]; Part B): 20.8%
- TEAE dizziness ([1]; Part B): 16.7%
- TEAE headache ([1]; Part B): 29.2%
- TEAE musculoskeletal stiffness ([1]; Part B): 20.8%
- TEAE nausea ([1]; Part B): 12.5%
- TEAE pain in extremity ([1]; Part B): 8.3%
- TEAE post lumbar puncture syndrome ([1]; Part B): 37.5%
- TEAE procedural nausea ([1]; Part B): 8.3%
- TEAE procedural vomiting ([1]; Part B): 8.3%
- TEAE vomiting ([1]; Part B): 20.8%
- incidence of any TEAEs ([1]; fasted state): 66.7%
- incidence of any TEAEs ([1]; fed state): 50%
- tolerability ([1]; Part B healthy adults with serial CSF sampling, single oral doses 50 to 400 mg): well tolerated
- subjects with at least 1 TEAE ([1]; Part B, both treatment periods, all doses): 83.3%
- tolerability ([1]; Part C healthy elderly subjects, single dose 100 mg): well tolerated
- subjects with at least 1 TEAE ([1]; Part C healthy elderly, 100 mg): 16.7%
- TEAE headache ([1]; Part D): 16.7%
- tolerability ([1]; Part D healthy Japanese adult subjects, single oral doses 25 to 400 mg): well tolerated
- subjects with at least 1 TEAE ([1]; Part D, all doses): 38.9%
- TEAE dizziness ([1]; Parts A and C): 5.6%
- TEAE headache ([1]; Parts A and C): 11.6%
- TEAE increase in orthostatic heart rate response ([1]; Parts A and C): 3.7%
- TEAE insomnia ([1]; Parts A and C): 5.6%
- TEAE paresthesia ([1]; Parts A and C): 3.7%
- TEAE postural orthostatic tachycardia ([1]; Parts A and C): 5.6%
- deaths or SAEs ([1]; Parts A and C): no deaths or SAEs
- subjects with at least 1 TEAE ([1]; Parts A and C, all doses): 42.6%
- maximum tolerated dose ([1]; single oral doses 10 to 1200 mg, healthy adults): not reached
- CSF cGMP % Change from Baseline Mean [2, 3]: 33.162%
- CSF cGMP % Change from Baseline Median [2, 3]: 29.954%
- CSF cGMP Change from Baseline Mean [2, 3]: 0.491 µg/L
- CSF cGMP Change from Baseline Median [2, 3]: 0.350 µg/L
- CSF cGMP Mean [2, 3]: 1.964 µg/L
- CSF cGMP Median [2, 3]: 1.730 µg/L
- CSF cGMP % Change from Baseline Mean [2, 4]: 94.222%
- CSF cGMP % Change from Baseline Median [2, 4]: 104.348%
- CSF cGMP Change from Baseline Mean [2, 4]: 1.276 µg/L
- CSF cGMP Change from Baseline Median [2, 4]: 1.390 µg/L
- CSF cGMP Mean [2, 4]: 2.704 µg/L
- CSF cGMP Median [2, 4]: 2.620 µg/L
- CSF cGMP % Change from Baseline Mean [2, 5]: 170.369%
- CSF cGMP % Change from Baseline Median [2, 5]: 183.494%
- CSF cGMP Change from Baseline Mean [2, 5]: 2.058 µg/L
- CSF cGMP Change from Baseline Median [2, 5]: 1.979 µg/L
- CSF cGMP Mean [2, 5]: 3.283 µg/L
- CSF cGMP Median [2, 5]: 3.225 µg/L
- CSF cGMP % Change from Baseline Mean [2, 6]: 191.445%
- CSF cGMP % Change from Baseline Median [2, 6]: 189.244%
- CSF cGMP Change from Baseline Mean [2, 6]: 3.750 µg/L
- CSF cGMP Change from Baseline Median [2, 6]: 3.260 µg/L
- CSF cGMP Mean [2, 6]: 5.778 µg/L
- CSF cGMP Median [2, 6]: 4.870 µg/L
- CSF cGMP % Change from Baseline Mean [2, 7]: 260.350%
- CSF cGMP % Change from Baseline Median [2, 7]: 258.784%
- CSF cGMP Change from Baseline Mean [2, 7]: 4.352 µg/L
- CSF cGMP Change from Baseline Median [2, 7]: 3.960 µg/L
- CSF cGMP Mean [2, 7]: 6.066 µg/L
- CSF cGMP Median [2, 7]: 5.420 µg/L
- CSF cGMP % Change from Baseline Mean [2, 8]: 201.165%
- CSF cGMP % Change from Baseline Median [2, 8]: 192.932%
- CSF cGMP Change from Baseline Mean [2, 8]: 3.810 µg/L
- CSF cGMP Change from Baseline Median [2, 8]: 3.755 µg/L
- CSF cGMP Mean [2, 8]: 5.702 µg/L
- CSF cGMP Median [2, 8]: 5.640 µg/L
- CSF cGMP % Change from Baseline Mean [2, 9]: 198.283%
- CSF cGMP % Change from Baseline Median [2, 9]: 191.646%
- CSF cGMP Change from Baseline Mean [2, 9]: 3.302 µg/L
- CSF cGMP Change from Baseline Median [2, 9]: 2.920 µg/L
- CSF cGMP Mean [2, 9]: 4.945 µg/L
- CSF cGMP Median [2, 9]: 4.370 µg/L
- CSF cGMP % Change from Baseline Mean ([2]; Part C, 50 mg, Day 13): 229.107%
- CSF cGMP % Change from Baseline Median ([2]; Part C, 50 mg, Day 13): 218.491%
- CSF cGMP Change from Baseline Mean ([2]; Part C, 50 mg, Day 13): 3.206 µg/L
- CSF cGMP Change from Baseline Median ([2]; Part C, 50 mg, Day 13): 3.065 µg/L
- CSF cGMP Mean ([2]; Part C, 50 mg, Day 13): 4.620 µg/L
- CSF cGMP Median ([2]; Part C, 50 mg, Day 13): 4.265 µg/L
- CSF cGMP % Change from Baseline Mean ([2]; Part C, 50 mg, Day 41): 222.283%
- CSF cGMP % Change from Baseline Median ([2]; Part C, 50 mg, Day 41): 182.044%
- CSF cGMP Change from Baseline Mean ([2]; Part C, 50 mg, Day 41): 3.097 µg/L
- CSF cGMP Change from Baseline Median ([2]; Part C, 50 mg, Day 41): 2.975 µg/L
- CSF cGMP Mean ([2]; Part C, 50 mg, Day 41): 4.511 µg/L
- CSF cGMP Median ([2]; Part C, 50 mg, Day 41): 4.650 µg/L
